# Measured values reported in patent US10597388B2, “Pyridazinone herbicides” (FMC CORPORATION, priority 2014, dated 2020).
# Experiments:
# Assay in all cases: Test E greenhouse herbicide test, pre- and postemergence
# Format in all cases: in vivo
# [1] = tested on: wild poinsettia (Euphorbia heterophylla)
# Outline: (§1)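 Scores (0–100, visual, vs controls) reflect greenhouse growth of 14 to 21 d after treatment. Application was pre-emergence to silt loam or post-emergence at the 1- to 4-leaf stage.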
# soybean (Glycine max) = tested on: soybean (Glycine max)
# Outline: as §1
# [2] = tested on: dayflower (Virginia (VA) dayflower, Commelina virginica)
# Outline: as §1
# [3] = tested on: momingglory (Ipomoea coccinea); details: Preemergence
# Outline: as §1
# [4] = tested on: pigweed, palmer (palmer pigweed, Amaranthus palmeri)
# Outline: as §1
# [5] = tested on: foxtail, green (green foxtail, Setaria viridis); details: Preemergence
# Outline: as §1
# [6] = tested on: Italian ryegrass (Lolium multiflorum)
# Outline: as §1
# corn (Zea mays) = tested on: corn (Zea mays)
# Outline: as §1
# [7] = tested on: johnsongrass (Sorghum halepense); details: Preemergence
# Outline: as §1
# [8] = tested on: lambsquarters (Chenopodium album); details: Preemergence
# Outline: as §1
# [9] = tested on: arrowleaf sida (Sida rhombifolia)
# Outline: as §1
# [10] = tested on: barnyardgrass (Echinochloa crus-galli)
# Outline: as §1
# [11] = tested on: nutsedge, yellow (yellow nutsedge, Cyperus esculentus); details: Preemergence
# Outline: as §1
# [12] = tested on: velvetleaf (Abutilon theophrasti); details: Preemergence
# Outline: as §1
# [13] = 62 g ai/ha, Postemergence, scale 0 to 100 (0 no effect, 100 complete control)
# [14] = 62 g ai/ha, Preemergence, scale 0 to 100 (0 no effect, 100 complete control)
# [15] = 125 g ai/ha, Postemergence, scale 0 to 100 (0 no effect, 100 complete control)
# [16] = 125 g ai/ha, Preemergence, scale 0 to 100 (0 no effect, 100 complete control)
# [17] = 250 g ai/ha, Postemergence, scale 0 to 100 (0 no effect, 100 complete control)
# [18] = Postemergence, 16 g ai/ha, visual, scale 0 no effect to 100 complete control
# [19] = Postemergence, 31 g ai/ha, visual, scale 0 no effect to 100 complete control
# [20] = Preemergence, 16 g ai/ha, scale 0 to 100, 0 no effect, 100 complete control
# [21] = Preemergence, 31 g ai/ha, scale 0 to 100, 0 no effect, 100 complete control
# [22] = Preemergence, 250 g ai/ha, visual, scale 0 no effect to 100 complete control
# [23] = Preemergence, 125 g ai/ha, visual, scale 0 no effect to 100 complete control
# [24] = 62 g ai/ha, scale 0 to 100 (0 no effect, 100 complete control)
# [25] = 125 g ai/ha, scale 0 to 100 (0 no effect, 100 complete control)
# [26] = 16 g ai/ha, scale 0 to 100, 0 no effect, 100 complete control
# [27] = 31 g ai/ha, scale 0 to 100, 0 no effect, 100 complete control
# [28] = 250 g ai/ha, visual, scale 0 no effect to 100 complete control
# [29] = 125 g ai/ha, visual, scale 0 no effect to 100 complete control
smiles,measurement,setting,value
"Cc1cc(C)c2sc(C)c(-c3c(O)c(C)nn(C)c3=O)c2c1 [Compound 2, 5-hydroxy-2,6-dimethyl-4-(2,5,7-trimethylbenzo[b]thien-3-yl)-3(2H)-pyridazinone]","Plant response rating, Poinsettia, Wild",[1]; [13],0
same,"Plant response rating, Poinsettia, Wild",[1]; [14],30
same,"Plant response rating, Poinsettia, Wild",[1]; [15],15
same,"Plant response rating, Poinsettia, Wild",[1]; [16],30
same,"Plant response rating, Poinsettia, Wild",[1]; [17],15
same,"Plant response rating, Poinsettia, Wild",[1]; [18],0
same,"Plant response rating, Poinsettia, Wild",[1]; [19],0
same,"Plant response rating, Poinsettia, Wild",[1]; [20],0
same,"Plant response rating, Poinsettia, Wild",[1]; [21],25
same,"Plant response rating, Poinsettia, Wild",[1]; [22],50
same,"Plant response rating, Soybean",soybean (Glycine max); [13],0
same,"Plant response rating, Soybean",soybean (Glycine max); [14],0
same,"Plant response rating, Soybean",soybean (Glycine max); [15],0
same,"Plant response rating, Soybean",soybean (Glycine max); [16],15
same,"Plant response rating, Soybean",soybean (Glycine max); [17],0
same,"Plant response rating, Soybean",soybean (Glycine max); [18],0
same,"Plant response rating, Soybean",soybean (Glycine max); [19],0
same,"Plant response rating, Soybean",soybean (Glycine max); [20],0
same,"Plant response rating, Soybean",soybean (Glycine max); [21],0
same,"Plant response rating, Soybean",soybean (Glycine max); [22],40
same,"Plant response rating, Dayflower, VA",[2]; [13],15
same,"Plant response rating, Dayflower, VA",[2]; [14],20
same,"Plant response rating, Dayflower, VA",[2]; [15],65
same,"Plant response rating, Dayflower, VA",[2]; [17],65
same,"Plant response rating, Dayflower, VA",[2]; [18],0
same,"Plant response rating, Dayflower, VA",[2]; [19],20
same,"Plant response rating, Dayflower, VA",[2]; [20],0
same,"Plant response rating, Dayflower, VA",[2]; [21],15
same,"Plant response rating, Dayflower, VA",[2]; [23],25
same,"Plant response rating, Dayflower, VA",[2]; [22],90
same,"Plant response rating, Morningglory",[3]; [24],90
same,"Plant response rating, Morningglory",[3]; [25],100
same,"Plant response rating, Morningglory",[3]; [26],0
same,"Plant response rating, Morningglory",[3]; [27],75
same,"Plant response rating, Morningglory",[3]; [28],100
same,"Plant response rating, Pigweed, Palmer",[4]; [13],5
same,"Plant response rating, Pigweed, Palmer",[4]; [14],50
same,"Plant response rating, Pigweed, Palmer",[4]; [15],5
same,"Plant response rating, Pigweed, Palmer",[4]; [16],90
same,"Plant response rating, Pigweed, Palmer",[4]; [17],35
same,"Plant response rating, Pigweed, Palmer",[4]; [18],0
same,"Plant response rating, Pigweed, Palmer",[4]; [19],50
same,"Plant response rating, Pigweed, Palmer",[4]; [20],0
same,"Plant response rating, Pigweed, Palmer",[4]; [21],20
same,"Plant response rating, Pigweed, Palmer",[4]; [22],100
same,"Plant response rating, Foxtail, Green",[5]; [24],95
same,"Plant response rating, Foxtail, Green",[5]; [26],0
same,"Plant response rating, Foxtail, Green",[5]; [27],35
same,"Plant response rating, Foxtail, Green",[5]; [29],95
same,"Plant response rating, Foxtail, Green",[5]; [28],98
same,"Plant response rating, Ryegrass, Italian",[6]; [13],50
same,"Plant response rating, Ryegrass, Italian",[6]; [14],98
same,"Plant response rating, Ryegrass, Italian",[6]; [15],65
same,"Plant response rating, Ryegrass, Italian",[6]; [16],100
same,"Plant response rating, Ryegrass, Italian",[6]; [17],75
same,"Plant response rating, Ryegrass, Italian",[6]; [18],20
same,"Plant response rating, Ryegrass, Italian",[6]; [19],30
same,"Plant response rating, Ryegrass, Italian",[6]; [20],50
same,"Plant response rating, Ryegrass, Italian",[6]; [21],95
same,"Plant response rating, Ryegrass, Italian",[6]; [22],100
same,"Plant response rating, Corn",corn (Zea mays); [13],0
same,"Plant response rating, Corn",corn (Zea mays); [14],0
same,"Plant response rating, Corn",corn (Zea mays); [15],5
same,"Plant response rating, Corn",corn (Zea mays); [17],5
same,"Plant response rating, Corn",corn (Zea mays); [18],0
same,"Plant response rating, Corn",corn (Zea mays); [19],0
same,"Plant response rating, Corn",corn (Zea mays); [20],0
same,"Plant response rating, Corn",corn (Zea mays); [21],0
same,"Plant response rating, Corn",corn (Zea mays); [23],0
same,"Plant response rating, Corn",corn (Zea mays); [22],0
same,"Plant response rating, Johnsongrass",[7]; [24],20
same,"Plant response rating, Johnsongrass",[7]; [26],0
same,"Plant response rating, Johnsongrass",[7]; [27],35
same,"Plant response rating, Johnsongrass",[7]; [29],35
same,"Plant response rating, Johnsongrass",[7]; [28],50
same,"Plant response rating, Lambsquarters",[8]; [24],98
same,"Plant response rating, Lambsquarters",[8]; [26],50
same,"Plant response rating, Lambsquarters",[8]; [27],100
same,"Plant response rating, Lambsquarters",[8]; [29],98
same,"Plant response rating, Lambsquarters",[8]; [28],100
same,"Plant response rating, Arrowleaf Sida",[9]; [13],30
same,"Plant response rating, Arrowleaf Sida",[9]; [14],0
same,"Plant response rating, Arrowleaf Sida",[9]; [15],35
same,"Plant response rating, Arrowleaf Sida",[9]; [17],40
same,"Plant response rating, Arrowleaf Sida",[9]; [18],0
same,"Plant response rating, Arrowleaf Sida",[9]; [19],25
same,"Plant response rating, Arrowleaf Sida",[9]; [20],0
same,"Plant response rating, Arrowleaf Sida",[9]; [21],0
same,"Plant response rating, Arrowleaf Sida",[9]; [23],0
same,"Plant response rating, Arrowleaf Sida",[9]; [22],5
same,"Plant response rating, Barnyardgrass",[10]; [13],25
same,"Plant response rating, Barnyardgrass",[10]; [14],0
same,"Plant response rating, Barnyardgrass",[10]; [15],30
same,"Plant response rating, Barnyardgrass",[10]; [17],35
same,"Plant response rating, Barnyardgrass",[10]; [18],20
same,"Plant response rating, Barnyardgrass",[10]; [19],20
same,"Plant response rating, Barnyardgrass",[10]; [20],0
same,"Plant response rating, Barnyardgrass",[10]; [21],0
same,"Plant response rating, Barnyardgrass",[10]; [23],25
same,"Plant response rating, Barnyardgrass",[10]; [22],70
same,"Plant response rating, Nutsedge, Yellow",[11]; [24],35
same,"Plant response rating, Nutsedge, Yellow",[11]; [25],65
same,"Plant response rating, Nutsedge, Yellow",[11]; [26],0
same,"Plant response rating, Nutsedge, Yellow",[11]; [27],0
same,"Plant response rating, Nutsedge, Yellow",[11]; [28],70
same,"Plant response rating, Velvetleaf",[12]; [24],60
same,"Plant response rating, Velvetleaf",[12]; [25],80
same,"Plant response rating, Velvetleaf",[12]; [26],0
same,"Plant response rating, Velvetleaf",[12]; [27],30
same,"Plant response rating, Velvetleaf",[12]; [28],90
